Here are results for one molecule from US4848349A, “Substance and method for measuring hepatic blood flow” (priority 1987, dated 1989).

Common to all, as to assay type: in vivo
The nature of data set [1]: Biliary excretion after intraduodenal injection (enterohepatic circulation). As for the experimental part:
In another group of experiments, FITC-GC was injected intraduodenally and bile samples collected for a period of two hours. More than 90% of the injected conjugate was excreted in the bile. […] It is these characteristics of fluoresceintly labelled bile acids which make them valuable as diagnostic agents and research tools.

The next data set relates to hamsters. The experiment in a line: Effects on bile flow, sinusoidal blood flow, blood pressure and heart rate (hamsters). The conditions noted are these: compared with equimolar amounts of sodium glycocholate.
The test system of the next data set is rats. As to the kind of experiment: Effects on bile flow, sinusoidal blood flow, blood pressure and heart rate (rats). Conditions: compared with equimolar amounts of sodium glycocholate.
Data set [2] in a line: Liver blood flow measurement by plasma elimination of injected FITC-GC. The conditions noted are these: 9 kg dog. As for the experimental part: The use of FITC bile acid for measuring liver blood flow has been tested in a dog. The following experimental protocol was followed.
15 μmoles of FITC-labelled glycocholic bile acid (FITC-GC) in 2 ml normal saline were injected into a 9 kg dog. Serial blood samples were taken into heparinized containers at 2, 4, 6, 8, and 10 minutes following the initial injection. The samples were then centrifuged for 5 minutes and the plasma collected. The concentration of FITC-GC in each plasma sample was measured with a PERKIN-ELMERS* spectrophlourimeter, using a previously determined calibration curve for FITC-GC solutions in plasma.
Therefore plasma clearance was calculated as [formula] M-amount of material injected and k=const. (k=1 for 100% extraction, 0.9 for 90% extraction), thus [formula] where [formula] is the slope of the line for concentration vs. time plot on a semi-log paper, and Co is the initial concentration (log Co is determined as an intercept of the plot with the concentration axis). For the purpose of calculating plasma clearance, k was assumed to equal 0.9.
Liver blood flow was then calculated from the plasma clearance value using the previously determined blood hematocrit (Htc) value as follows: [formula]

As for `C[C@H](CCC(=O)NCC(=O)O)[C@H]1CC[C@H]2[C@@H]3[C@H](O)C[C@@H]4C[C@H](OC(=S)Nc5ccc6c(c5)C5(OC6=O)c6ccc(O)cc6Oc6cc(O)ccc65)CC[C@]4(C)[C@H]3C[C@H](O)[C@]12C` [FITC-GC, fluorescein isothiocyanate-sodium glycocholate], the dose excreted at 2 h in data set [1] (injected intraduodenally, bile collected for two hours, read-out: injected conjugate excreted in the bile) was more than 90%. Also, the enterohepatic circulation result in data set [1] (intraduodenal injection and reinjection of bile) is given as “undergoes an enterohepatic circulation”. Also, the “elimination of the injected conjugate via bile after reinjection of collected bile” value in data set [1] (reinjection into the duodenum of the bile collected) was “almost complete elimination”. Besides, in the data set on hamsters, the “effect on bile flow” value is reported as “the same effects”, the “effect on blood pressure” value was “the same effects”, the “effect on heart rate” value was “the same effects” and the “effect on sinusoidal blood flow” value was “the same effects”. In the data set with rats, the “effect on bile flow” value was “the same effects”, the “effect on blood pressure” value is recorded as “the same effects”, the “effect on heart rate” value is “the same effects” and the “effect on sinusoidal blood flow” value is listed as “the same effects”. Moreover, the liver blood flow in data set [2] (15 μmoles FITC-GC injected in 2 ml normal saline, samples at 2-10 minutes, k assumed 0.9, corrected for hematocrit) is 194 mL/min. The “concentration values in plasma serial samples (decline)” value in data set [2] (15 μmoles injected, 2, 4, 6, 8 and 10 minutes) is given as “monoexponential decline”.
